# Data as given in patent publication US7332513B2, “Thiazole-based nitric oxide donors having acyl substituent(s) and uses thereof” (priority 2004, dated 2008).
# Entries after “also recorded” stand apart in the source; their conditions may differ.
# Legend:
# isolated rat aorta = assay: In vitro induction of tolerance to NO releasing compounds (vasorelaxation of pre-exposed aortic rings, incl. cross-tolerance); format: cell-based; conditions: for tolerance induction after pre-treatment with the same compound: rat aorta pre-treated with epinephrine and then 0.44 mM of the compound
# Description: Aortic rings were prepared as described hereinabove, and were exposed to 0.44 mM GTN (vehicle was water:ethanol:propyleneglycol at proportional ratio of 1:1:1) for 1 hour before CCRC construction, to thereby induce tolerance to nitroglycerine. At the end of the tolerance induction period, rings were thrice washed with the path buffer (Krebs-bicrbonate) every 15 minutes for the following hour and then CCRC for vasorelaxation on GTN-induced tolerance rings were constructed for GTN (pretreated versus untreated rings, FIG. 15), in order to verify the ability to induce and measure GTN tolerance induction in vitro
# Attempted induction of tolerance to the NO-donating compounds of the present invention was performed under the same conditions as for GTN. Thus, in an exemplary experiment, rings were exposed to 0.44 mM solution of Pet-3 in the attempt to induce tolerance for Pet-3. CCRC were then measured for the vasorelaxing effect of Pet-3 on a group of rings which were pre-exposed to Pet-3 as to induce tolerance to Pet-3, and for an untreated control group. The above protocol was repeated with Pet-2, Pet-7, Pet-8, Pet-12, Pet-24, Pet-43, Pet-149 and Pet-152.
# Cross-tolerance studies were conducted using the same technique described above for measuring vasorelaxation of aortic rings from rats. Two groups of aortic rings samples were pre-treated with GTN, then one group was measured for vasorelaxation by GTN and the second group for vasorelaxation by Pet-12, an exemplary NO-donor according to the present invention. For the opposite cross-tolerance studies, two groups of aortic rings samples were pre-treated with Pet-12, then one group was measured for vasorelaxation by GTN and the second group for vasorelaxation by Pet-12.
# [1] = test system: c-GMP in slices of thoracic aorta of rats; assay: Cyclic-GMP measurement in aortic rat tissue (radioimmunoassay); format: cell-based; conditions: for cGMP Post-infusion: rat aorta, post-infusion (repeated treatment)
# Description: GTN (10^−6 M) was added to the chamber and, 1 minute after exposure to the drug, rings (usually 3-5) were taken, wrapped with aluminum foil and immediately frozen in liquid nitrogen for storage. Control sample group was treated with the vehicle solution only. At the time of analysis, rings were thawed, blotted over a dry gauzed and weighted. A known weight of tissue was homogenized in 2 ml ice-cold modified Hank's balanced salt solution containing (in gram/liter) NaCl 8; KCl 0.4; glucose 1; KH2PO4 0.06; Na2HPO4 0.047; Phenol red 0.017 and further containing 25 mM EDTA (disodium salt). The homogenate was centrifuged at 4000 g (force units) for 10 minutes at 2-4° C. and the supernatant was thereafter transferred into fresh pre-cooled test tube containing 1 ml of acetonitrile. The tubes were vortex mixed for a few seconds and subsequently centrifuged at 4000 g for 5 minutes at 2-4° C., to remove the precipitated protein. Each supernatant was transferred into a clean test tube and evaporated to dryness under a stream of nitrogen at 55° C. The dry residue was reconstituted with 10 volumes of Tris-EDTA buffer pH 7.5 (0.05 M Tris containing 4 mM EDTA). Aliquots of 100 μl of the reconstituted solution in duplicate were used for c-GMP measurements using Amersham RIA kit, as is described in Haj-Yehia & Benet [Pharmacology, 1995, 273, 1, pp. 94-100]. Standard curves were plotted with six concentrations (0, 0.5, 1, 2, 4 and 8 pmoles of c-GMP per tube).
# The NO-tolerance effect of GTN and NO-donor compounds according to the present invention was measured by following the production of c-GMP in slices of thoracic aorta of rats. Thus, the production of c-GMP was measured as described in the methods section above for the reference NO-donor compound GTN, and for the NO-donors of the present invention Pet-2, Pet-3, Pet-7, Pet-8, Pet-10, Pet-12, Pet-24, Pet-59, Pet-147, Pet-149, Pet-152, Pet-154 and Pet-155.
# [2] = test system: anesthetized hypertensive Sprague-Dawley male rats; assay: Hypotensive effects: mean arterial pressure after iv bolus in phenylephrine-treated rats; format: in vivo, rat
# Source text: These techniques were also used to detect tolerance induction by the NO-donors of the present invention and by GTN. For c-GMP levels and tolerance development, the rat's thoracic aorta was isolated after exposure to the tested compound in vivo, and measured as described above in the in vitro assays.
# Mean arterial pressure (MAP) was monitored and determined during bolus infusion of Pet-2, Pet-3, Pet-7, Pet-8, Pet-12 and Pet-13. Briefly, polyethylene catheters (PE50) were inserted into the carotid artery and into the jugular vein of anesthetized hypertensive Sprague-Dawley male rats (200-300 grams). A blood pressure recorder was placed within the carotid artery. Phenylephrine (0.1 mg) was then injected and the mean arterial blood pressure (MABP) was monitored continuously until a stable baseline was reached. The hypotensive effects of intravenous (iv) bolus doses (0.1 mg of each tested compound) administered intravenously at the jugular vein in minimal volume of vehicle (0.2 ml per dose) were evaluated. Five minutes were allowed between each dose, during which the maximal decrease in MAP was recorded and a dose-response graph comparing the hypotensive effect of the compounds was constructed.
# [3] = test system: cGMP in thoracic aorta of rats treated in vivo; assay: Induction of in vivo nitrate tolerance (16 hour infusion, then cGMP in isolated aorta); parameters: species or system rat; conditions: rats infused in vivo 16 hours, aorta re-exposed to the compound
# Description: Male Sprague Dawley rats (220 to 250 grams) were housed under constant temperature and humidity conditions. Light was maintained at a 12/12 light dark cycle. Except for 12 hours before the experiment, when food fasting was initiated, all rats had free access to standard rat pellet diet and tap water. The animals were anesthetized by intraperitoneal injection of ketamine and xylazine combination (50 and 10 milligram per kilogram, respectively). […] The catheters were filled with normal saline solution containing 1000 IU/ml of heparin and plugged with a metal pin. Catheters were externalized to the back of the neck region and secured by a polyester felt disk.
# After implantation, the rats were individually housed until they regained their preoperative weight and appeared healthy (3 to 4 days post-operation). At this time point (day 0), an osmotic mini-pump (Alza Corp., Palo Alto, Calif.) delivering constant volume (10 μl/hour) of vehicle or drug was connected to one of the intravenous catheters.
# For inducing tolerance to the tested NO-donor according to the present invention, the animals received 200 μg/hour of the tested compound for 16 hours (short-term-induced tolerance). A similar number of animals were processed by the same surgical procedure and received the vehicle alone (10 μl/hour of a solution consisting of 30% ethanol and 30% propylene glycol in sterile distilled water for injection).
# At the end of the infusion periods used for the development of tolerance (16 hour), the rats were anesthetized as described above, the two catheters were externalized and the delivering catheters were disconnected from the mini-pump. The abdomen was opened by midline incision and the thoracic aorta were isolated, washed and cleaned from the surrounding tissues. Strips of the treated aortas were pooled in chambers containing Krebs-Hanseliet buffer (10 ml), and exposed to 1 μM of the tested NO-donor (final concentration) for 120 seconds. The tissues were quickly collected and frozen in liquid nitrogen for cGMP measurement, described hereinabove.
SMILES,tolerance induction after pre-treatment with the same compound (isolated rat aorta),vasorelaxation in rings pre-treated with GTN (cross-tolerance) (isolated rat aorta; rat aorta pre-treated with epinephrine and then with GTN),vasorelaxation in rings pre-treated with Pet-12 (cross-tolerance) (isolated rat aorta; rat aorta pre-treated with epinephrine and then with Pet-12),cGMP Post-infusion [1],"hypotensive / vasorelaxation effect on heightened mean arterial blood pressure ([2]; rats pre-treated in vivo with phenylephrine, iv bolus 10-100 micrograms)",tolerance in vivo: cGMP level in aorta following repeated treatment [3],c-GMP level following a repeated treatment ([1]; slices of thoracic aorta of rats),"effect on MAP following successive administrations ([2]; iv bolus doses, rats)"
"Cc1nc(-c2cccnc2)sc1CCO[N+](=O)[O-] [Pet-12, 3-[4-Methyl-5-(2-nitrooxy-ethyl)-thiazole-2-yl]-pyridine]",absence of tolerance induction,absence of tolerance induction effect; also recorded: no effect on the vasorelaxation capacity,absence of tolerance induction effect; also recorded: does not evoke tolerance to itself not to GTN,112 ± 12 pmol/g tissue,vasorelaxation effect,absence of tolerance induction; also recorded: absence of tolerance effect; also recorded: lack of tolerance induction,–,–
"O=[N+]([O-])OCC(CO[N+](=O)[O-])O[N+](=O)[O-] [GTN, glyceryl trinitrate, reference compound]",tolerance induced,–,–,45 ± 12^¥ pmol/g tissue,–,tolerance inducing effect; also recorded: decreased,significantly reduced,attenuation
